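Five compound concentrations were applied to cells in 96-well plates for 48 hours; endpoints were derived by simple linear interpolation of the resulting dose-response curve. Here, GI50 denotes the concentration required for 50% inhibition of growth.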 Calls of active or inactive are those of the source. No stated cut-off is given here; in the data, active = GI50 up to about 1.1 µM and inactive = higher.

Some test systems named below: A549; M14; UACC-62; 786-0; A498; CAKI-1; UO-31; OVCAR-3; RXF 393; SN12C; NCI-H226; NCI-H23; SR; U-251; SK-MEL-5; HCT-15; SK-MEL-2.
What all share (experiment): NCI tumour cell line growth inhibition, 48 h

Take `O=C1CC(CC(=O)C2CCCCC2=O)C(=O)N1` (stereo not drawn): the GI50 in the assay on A549, with M14, in the assay with UACC-62, with 786-0, in the assay with A498 and in the assay on CAKI-1 was > 100 µM (inactive) in each case. The GI50 with UO-31, in the assay with OVCAR-3, with RXF 393, with SN12C, with NCI-H226 and in the assay on NCI-H23 was > 100 µM (inactive) in each case. For the same compound, the GI50 in the assay on SR and in the assay on U-251 was > 100 µM (inactive) throughout.

As for `COc1cc(/C=N/N=C(\N)NO)c(Cl)cc1O`, the GI50 in the assay on A549 is 38 µM (inactive); in the assay on SK-MEL-5, 51.5 µM (inactive); in the assay with UACC-62, 47.1 µM (inactive); in the assay on HCT-15, 46.5 µM; in the assay on 786-0, 46.6 µM (inactive); in the assay on A498, 99.8 µM (inactive). In addition, the GI50 with CAKI-1 is 78 µM (inactive); in the assay with UO-31 it was 94 µM (inactive); in the assay with RXF 393 it was 81.5 µM (inactive); in the assay on SN12C, 58.2 µM (inactive); in the assay on NCI-H226 it was 81.5 µM (inactive); in the assay on NCI-H23, 35.5 µM (inactive). In addition, the GI50 in the assay on SK-MEL-2 was 71.6 µM (inactive); with U-251, > 100 µM (inactive).

Turning to `Oc1ccncc1-c1cnccc1O`, the GI50 in the assay on A549 is > 100 µM (inactive); in the assay with SK-MEL-5, > 100 µM (inactive); with M14, > 100 µM (inactive); with UACC-62 it was > 100 µM (inactive); in the assay with HCT-15 it was greater than 100 µM; with 786-0, > 100 µM (inactive). Moreover, the GI50 with A498, in the assay on CAKI-1, with UO-31, in the assay on OVCAR-3, in the assay with RXF 393 and with SN12C was > 100 µM (inactive) each time. For the same compound, the GI50 with NCI-H226, in the assay with NCI-H23 and in the assay with U-251 was > 100 µM (inactive) throughout.

Turning to `C=C(COC(C)=O)CC(OC(C)=O)c1ccccc1` (stereo not drawn), the GI50 in the assay on A549 is > 100 µM (inactive); with SK-MEL-5 it was > 100 µM (inactive); in the assay with M14 it was > 100 µM (inactive); with UACC-62, > 100 µM (inactive); in the assay on HCT-15, greater than 100 µM; in the assay on 786-0, > 100 µM (inactive). In addition, the GI50 in the assay with A498, in the assay with UO-31, with OVCAR-3, with RXF 393, in the assay on SN12C and with NCI-H226 was > 100 µM (inactive) throughout. Further, the GI50 in the assay with NCI-H23, with SK-MEL-2 and in the assay on U-251 was > 100 µM (inactive) each time.

Turning to `CCOC(=O)/C(=C/c1cc(OC)ccc1OC)CC(=O)O`, the GI50 in the assay with A549 was > 100 µM (inactive); with SK-MEL-5, > 100 µM (inactive); with M14 it was > 100 µM (inactive); with UACC-62, > 100 µM (inactive); with HCT-15, greater than 43.7 µM; in the assay with 786-0, > 31.6 µM (inactive). In addition, the GI50 in the assay with A498, with CAKI-1, in the assay with UO-31, in the assay on OVCAR-3, in the assay with RXF 393 and in the assay with SN12C was > 100 µM (inactive) in each case. In addition, the GI50 was > 100 µM (inactive) in the assay with NCI-H23, 19.5 µM (inactive) in the assay with SK-MEL-2, > 100 µM (inactive) in the assay with SR and > 100 µM (inactive) in the assay on U-251.

As for `O=C1NC2(CCCC2)C2CCCCC12O` (stereo not drawn), the GI50 in the assay with A549 was > 100 µM (inactive); with SK-MEL-5, > 100 µM (inactive); with M14, > 100 µM (inactive); in the assay with UACC-62, > 100 µM (inactive); in the assay on HCT-15 it was greater than 100 µM; with 786-0 it was > 100 µM (inactive). The GI50 in the assay with A498, with CAKI-1, in the assay with UO-31, in the assay on OVCAR-3, in the assay on RXF 393 and with SN12C was > 100 µM (inactive) each time. Moreover, the GI50 in the assay on NCI-H23, in the assay with SK-MEL-2, in the assay with SR and in the assay on U-251 was > 100 µM (inactive) each time.

`N#CC(=C1C=CC(=NO)C=C1)c1ccc(Cl)cc1`: the GI50 in the assay on A549 is 18.7 µM (inactive); with SK-MEL-5, 7.5 µM (inactive); in the assay on M14, 16.4 µM (inactive); in the assay with UACC-62, 3.71 µM (inactive); in the assay on HCT-15, 13.7 µM; with 786-0, 2.29 µM (inactive). Also, the GI50 in the assay with A498 is 67.3 µM (inactive); with CAKI-1 it was 15.1 µM (inactive); in the assay on UO-31, 11.5 µM (inactive); in the assay on OVCAR-3 it was 3.52 µM (inactive); with RXF 393, 16 µM (inactive); with SN12C, 16.5 µM (inactive). In addition, the GI50 was 23.7 µM (inactive) in the assay on NCI-H23, 4.36 µM (inactive) in the assay with SK-MEL-2, 4.83 µM (inactive) in the assay on SR and 13.6 µM (inactive) in the assay on U-251.

In the case of `C#CCN(Cc1ccc2nc(-c3ccccc3)c(N)nc2c1)c1cc(OC)c(OC)c(OC)c1`, the GI50 in the assay with A549 is 23.2 µM (inactive); in the assay on SK-MEL-5, 11.9 µM (inactive); in the assay on M14 it was 25.5 µM (inactive); in the assay on UACC-62, 20 µM (inactive); in the assay with HCT-15, 31.9 µM; in the assay on 786-0 it was 44.7 µM (inactive). The GI50 with UO-31 was 23.1 µM (inactive); with OVCAR-3 it was 15.4 µM (inactive); in the assay with RXF 393 it was 25.5 µM (inactive); with SN12C, 32.1 µM (inactive); in the assay on NCI-H226 it was 16.7 µM (inactive); with NCI-H23, 25.1 µM (inactive). Also, the GI50 in the assay with SK-MEL-2 is 23.1 µM (inactive); with SR, 13.9 µM (inactive); in the assay on U-251, 37 µM (inactive).

With `Cc1ccc(S(=O)(=O)c2ccc(C)cc2[N+](=O)[O-])c([N+](=O)[O-])c1`, the GI50 with A549 is > 100 µM (inactive); in the assay with SK-MEL-5 it was > 100 µM (inactive); in the assay with M14 it was > 100 µM (inactive); in the assay on UACC-62 it was > 100 µM (inactive); with HCT-15 it was greater than 100 µM; with 786-0, > 100 µM (inactive). Moreover, the GI50 with UO-31, in the assay with OVCAR-3, with RXF 393, in the assay with SN12C, in the assay on NCI-H226 and in the assay with NCI-H23 was > 100 µM (inactive) throughout. The GI50 with SK-MEL-2, in the assay on SR and with U-251 was > 100 µM (inactive) throughout.

On to `O=C1NC(=S)NC(=O)C1=Cc1ccc([N+](=O)[O-])o1`, for which the GI50 was > 100 µM (inactive) in the assay on A549; 23.4 µM (inactive) in the assay with SK-MEL-5; 15.7 µM (inactive) in the assay on M14; 19.4 µM (inactive) with UACC-62; 17 µM in the assay on HCT-15; 19.3 µM (inactive) in the assay on 786-0. The GI50 with A498 was > 100 µM (inactive); with CAKI-1, 19.5 µM (inactive); with UO-31, 39.2 µM (inactive); in the assay with RXF 393, 19.3 µM (inactive); with SN12C, 16.3 µM (inactive); in the assay on NCI-H226 it was > 100 µM (inactive). In addition, the GI50 with NCI-H23 was 16.9 µM (inactive); with SK-MEL-2 it was 46.9 µM (inactive); with SR, 19.6 µM (inactive); in the assay with U-251 it was > 100 µM (inactive).

As for `O=[N+]([O-])c1ccc(/C=C/c2csnn2)cc1`, the GI50 in the assay on A549 was > 100 µM (inactive); in the assay on SK-MEL-5 it was > 100 µM (inactive); in the assay with M14 it was > 100 µM (inactive); in the assay with UACC-62, > 100 µM (inactive); in the assay on HCT-15, greater than 100 µM; in the assay with 786-0, > 100 µM (inactive). The GI50 in the assay on CAKI-1, in the assay on UO-31, in the assay with OVCAR-3, in the assay with RXF 393, in the assay on SN12C and in the assay with NCI-H226 was > 100 µM (inactive) in each case. In addition, the GI50 with NCI-H23, in the assay with SK-MEL-2 and in the assay on U-251 was > 100 µM (inactive) throughout.

As to `CC1(C)CC(N2CCN(C3CC(C)(C)NC(C)(C)C3)CC2)CC(C)(C)N1`, the GI50 in the assay with A549 was > 100 µM (inactive); with SK-MEL-5, > 100 µM (inactive); with M14, > 100 µM (inactive); with UACC-62, > 100 µM (inactive); with HCT-15, greater than 100 µM; in the assay on 786-0, > 100 µM (inactive). The GI50 in the assay with A498, in the assay with CAKI-1, in the assay on UO-31, with OVCAR-3, in the assay on RXF 393 and in the assay with SN12C was > 100 µM (inactive) each time. For the same compound, the GI50 in the assay with NCI-H23, with SR and in the assay on U-251 was > 100 µM (inactive) throughout.

For `C/C(=C\Cc1cc(O)ccc1O)CCc1c(C)cc(O)c(C=O)c1C` [PANICEIN B3], the GI50 in the assay on A549 was 27.4 µM (inactive); in the assay with SK-MEL-5 it was 17.4 µM (inactive); in the assay on M14, 23.5 µM (inactive); with HCT-15, 27.4 µM; in the assay on 786-0 it was 25.5 µM (inactive); in the assay on A498 it was 40.3 µM (inactive). Moreover, the GI50 with CAKI-1 is 22.4 µM (inactive); in the assay on UO-31 it was 23.5 µM (inactive); with OVCAR-3, 24.9 µM (inactive); in the assay on RXF 393 it was 15.9 µM (inactive); in the assay with SN12C, 28.2 µM (inactive); in the assay on NCI-H226, 22.5 µM (inactive). Further, the GI50 in the assay on NCI-H23 was 22.5 µM (inactive); in the assay on SK-MEL-2 it was 23 µM (inactive); in the assay with SR, 28.4 µM (inactive); in the assay with U-251 it was 19.5 µM (inactive).

Source of the values: ChEMBL document CHEMBL1201862, “PubChem BioAssay data set” (2004).
